We go through 17 molecules from patent US12503713B1, “Stabilization of tryptamines by denaturing enzymes, optimizing ionization states, and controlling confounding variables” (Convergent Health Sciences LLC, priority 2025, dated 2025).

Data set [1] is described as follows: spontaneous dephosphorylation of phosphoryloxytryptamines in phosphate buffers, one hour at 85 degrees Celsius, HPLC at 220 nanometers (Example 1).
The conditions of data set [2]: cited from earlier work.
Another data set deals with phosphatase enzyme. The data set is described as follows: colorimetric assay with a para-nitrophenyl phosphate substrate for residual phosphatase enzyme activity. In kind it is biochemical, Psilocybe cubensis. The settings on record: supernatants of the extracts. The text has this: The denaturation of relevant phosphatase enzymes may be assessed, for example, by performing a colorimetric assay with a para-nitrophenyl phosphate substrate. Para-nitrophenyl phosphate comprises a phosphorylated aromatic, which is chemically similar to the phosphorylated indole of a phosphoryloxytryptamine. Colorimetric assays performed with a para-nitrophenyl phosphate substrate therefore provide suitable methods to assess […] that are relevant to this disclosure.
(§1) The molecular weights of the analytes are determined by electrospray ionization mass spectroscopy (ESI-MS) operating in positive ion mode. The supernatants are also used for a colorimetric assay with a para-nitrophenyl phosphate substrate to identify residual phosphatase enzyme activity and for a colorimetric assay with a syringaldazine substrate to identify any residual laccase enzyme activity.

For another data set, the system named is laccase enzyme. In words: colorimetric assay with a syringaldazine substrate for residual laccase enzyme activity. In kind it is biochemical, Psilocybe cubensis. The settings on record: supernatants of the extracts.
Source text: The denaturation of relevant laccase enzymes may be assessed, for example, by performing a colorimetric assay with a laccase enzyme substrate such as syringaldazine or 2,2′-azino-bis(3-ethylbenzothiazoline-6-sulfonate) (ABTS). Syringaldazine comprises an aromatic structure with pendant hydroxyl groups, which is chemically similar to the indole of a hydroxytryptamine, and ABTS comprises a benzothiazoline, which is chemically similar to the indole of tryptamines generally. Colorimetric assays performed with a syringaldazine or ABTS substrate therefore provide suitable methods to assess laccase activity that are relevant to this disclosure.
as §1

For data set [3] the following is noted: cited from earlier work. This is another data set of the same source.
Where [4] appears, read: pH of 3.0 relative to pH of 2.0.
The mark [5] stands for this setting: pH of 6.0 relative to pH of 7.0.
The mark [6] stands for this setting: pH of 2.0 relative to pH of 3.0.
The mark [7] stands for this setting: pH of 7.0 relative to pH of 6.0.

On to `C[N+](C)(C)CCc1c[nH]c2cccc(OP(=O)(O)O)c12` [aeruginascin, [2-(4-phosphonooxy-1H-indol-3-yl)ethyl]-trimethylazanium], for which the “absorbance detected for the phosphoryloxytryptamine” value in data set [1] (setting [4]) and in data set [1] (setting [5]) was “Greater absorbance” throughout.
Chitin: in data set [2], the solubility in water entry is reported as “insoluble in water”.
On to `N.N.O=S(=O)(O)O` [ammonium sulfate], for which, in the data set on phosphatase enzyme, the “phosphatase enzyme activity relative to the water control” value is “significantly less”. Further, the “laccase enzyme activity relative to the water control” value in the data set on laccase enzyme is recorded as “significantly less”.
As for `C[N+](C)(C)CCc1c[nH]c2cccc(O)c12` [4-hydroxy-TMT, [2-(4-hydroxy-1H-indol-3-yl)ethyl]-trimethylazanium], the “absorbance detected for the hydroxytryptamine” value in data set [1] (setting [6]) and in data set [1] (setting [7]) was “greater absorbance” in each case.
On to `CCCCCCCCO[C@@H]1O[C@H](CO)[C@@H](O)[C@H](O)[C@H]1O` [octyl glucoside, octyl β-D-glucopyranoside], for which the “phosphatase enzyme activity relative to the water control” value with phosphatase enzyme is “significantly less”. Also, the “laccase enzyme activity relative to the water control” value with laccase enzyme is reported as “significantly less”.
In the case of “polyethylene glycol 4-(2,4,4-trimethylpent-2-yl)phenyl ether [Triton X-100]”, the “phosphatase enzyme activity relative to the water control” value with phosphatase enzyme was “significantly less”. The “laccase enzyme activity relative to the water control” value with laccase enzyme is listed as “significantly less”.
Turning to `CN(C)CCc1c[nH]c2cccc(OP(=O)(O)O)c12` [psilocybin], the “pKa of the azanium of psilocybin” value in data set [3] (conjugate acid of the amino) is given as “about 10.4”. Further, in data set [3] (first phosphate pKa), the “pKa of the dihydrogen phosphate of psilocybin (lowest pKa)” value is “about 1.3”.
For `CNCCc1c[nH]c2cccc(O)c12` [norpsilocin, 3-[2-(methylamino)ethyl]-1H-indol-4-ol], the “absorbance detected for the hydroxytryptamine” value in data set [1] (setting [6]) and in data set [1] (setting [7]) was “greater absorbance” in each case.
`NCCc1c[nH]c2cccc(OP(=O)(O)O)c12` [norbaeocystin, 2-(4-phosphonooxy-1H-indol-3-yl)ethylazanium]: the “absorbance detected for the phosphoryloxytryptamine” value in data set [1] (setting [4]) and in data set [1] (setting [5]) was “Greater absorbance” throughout.
For the molecule `Cl.N=C(N)N` [guanidinium, guanidinium chloride], in the data set on phosphatase enzyme, the “phosphatase enzyme activity relative to the water control” value was “significantly less”. Besides, in the data set with laccase enzyme, the “laccase enzyme activity relative to the water control” value is on record as “significantly less”.
As to `NCCc1c[nH]c2cccc(O)c12` [4-HT, 3-(2-aminoethyl)-1H-indol-4-ol], the “absorbance detected for the hydroxytryptamine” value in data set [1] (setting [6]) and in data set [1] (setting [7]) was “greater absorbance” in each case.
Consider `CNCCc1c[nH]c2cccc(OP(=O)(O)O)c12` [baeocystin, [2-(4-phosphonooxy-1H-indol-3-yl)ethyl]-methylazanium], for which the “absorbance detected for the phosphoryloxytryptamine” value in data set [1] (setting [4]) and in data set [1] (setting [5]) was “Greater absorbance” throughout.
Turning to `O=C(O)Cc1c[nH]c2ccccc12` [Indole-3-acetic acid, indole-3-acetic acid], the solubility in water entry in data set [2] is given as “insoluble in water”.
`CCCCCCCCCCCCOS(=O)(=O)[O-].[Na+]` [sodium dodecyl sulfate]: in the data set with phosphatase enzyme, the “phosphatase enzyme activity relative to the water control” value is listed as “significantly less”. In addition, the “laccase enzyme activity relative to the water control” value in the data set on laccase enzyme is recorded as “significantly less”.
In the case of `NC(N)=O` [urea], the “phosphatase enzyme activity relative to the water control” value in the data set with phosphatase enzyme is recorded as “significantly less”. In the data set on laccase enzyme, the “laccase enzyme activity relative to the water control” value is given as “significantly less”.
As for `CN(C)CCc1c[nH]c2cccc(O)c12` [psilocin, 3-[2-(dimethylamino)ethyl]-1H-indol-4-ol], the “absorbance detected for the hydroxytryptamine” value in data set [1] (setting [6]) and in data set [1] (setting [7]) was “greater absorbance” in each case.
As for `OCCc1c[nH]c2ccccc12` [tryptophol], in data set [2], the solubility in water result is “insoluble in water”.
